± gives the expanded uncertainty stated by the source.
Experiment: mn = molality of the nth substance listed, in mol/kg
Settings: 100 kPa, Liquid; for speed of sound: Frequency=3 MHz, Single path-length method; for mass density: Vibrating tube method

[Cl-].[Li+] [lithium chloride] + O
Settings	mass density, 288.15 K [kg/m3]	mass density, 293.15 K [kg/m3]	mass density, 298.15 K [kg/m3]	mass density, 303.15 K [kg/m3]	mass density, 308.15 K [kg/m3]	speed of sound, 288.15 K [m/s]	speed of sound, 293.15 K [m/s]	speed of sound, 298.15 K [m/s]	speed of sound, 303.15 K [m/s]	speed of sound, 308.15 K [m/s]
m1 = 0.05	1000.33 ± 0.31	999.427 ± 0.31	998.265 ± 0.31	996.862 ± 0.31	995.242 ± 0.31	1469.6 ± 1	1485.6 ± 1	–	1512 ± 1	–
m1 = 0.1002	1001.57 ± 0.31	1000.66 ± 0.31	999.489 ± 0.31	998.083 ± 0.31	–	1472.7 ± 1	1488.6 ± 1	1502.6 ± 1	1514.8 ± 1	1525.3 ± 1
m1 = 0.1498	1002.78 ± 0.31	1001.87 ± 0.31	1000.69 ± 0.31	999.281 ± 0.31	997.651 ± 0.31	1475.8 ± 1	1491.6 ± 1	1505.5 ± 1	1517.6 ± 1	–
m1 = 0.1999	1004 ± 0.31	1003.08 ± 0.31	1001.89 ± 0.31	1000.48 ± 0.31	998.845 ± 0.31	1478.8 ± 1	1494.6 ± 1	1508.3 ± 1	1520.3 ± 1	1530.7 ± 1
m1 = 0.2502	1005.22 ± 0.31	1004.28 ± 0.31	1003.1 ± 0.31	1001.68 ± 0.31	1000.04 ± 0.31	1482 ± 1.1	1497.6 ± 1	1511.2 ± 1	–	–
m1 = 0.2999	1006.41 ± 0.31	1005.47 ± 0.31	1004.28 ± 0.31	1002.86 ± 0.31	1001.21 ± 0.31	1485 ± 1	1500.5 ± 1	1514.1 ± 1	1525.9 ± 1	1536 ± 1
m1 = 0.3503	1007.63 ± 0.31	1006.67 ± 0.31	1005.47 ± 0.31	1004.05 ± 0.31	1002.4 ± 0.31	1488.1 ± 1	1503.5 ± 1	1516.9 ± 1	1528.6 ± 1	1538.7 ± 1
m1 = 0.4	1008.83 ± 0.31	1007.86 ± 0.31	1006.65 ± 0.31	1005.22 ± 0.31	1003.57 ± 0.31	1491.1 ± 1.1	1506.3 ± 1	1519.6 ± 1	1531.2 ± 1	1541.2 ± 1
m1 = 0.4503	1010.02 ± 0.31	1009.04 ± 0.31	1007.83 ± 0.31	1006.4 ± 0.31	1004.74 ± 0.31	1494.2 ± 1.1	1509.2 ± 1	1522.4 ± 1	1533.9 ± 1	1543.8 ± 1
m1 = 0.5	1011.21 ± 0.31	1010.21 ± 0.31	1008.99 ± 0.31	1007.56 ± 0.31	1005.9 ± 0.31	1497.2 ± 1.1	1512.1 ± 1	1525.1 ± 1	1536.6 ± 1	1546.4 ± 1

— the NIST ThermoML archive (doi:10.1016/j.jct.2017.02.004)
